# From patent US20250320288A1, “METHOD OF TREATING VITILIGO WITH INTERFERON-GAMMA ANTIBODY” (Elixiron Immunotherapeutics (Hong Kong), priority 2022, published 2025)
# Entries after “also recorded” stand apart in the source; their conditions may differ.
# What was measured:
# primary melanocytes [1] = test: Melanocyte cell viability after IFN-γ, chemokines, cell death inhibitors or 2A6Q, Day 2 and Day 7; type: cell-based, human; conditions: for rescue of IFN-γ induced melanocyte cell death (cell viability): melanocytes with IFN-γ, up to seven days
# Protocol: To determine cell viability of melanocyte after treatment with IFN-γ, CXCL9, CXCL10, CXCL11, at Day 2, and Day 7, the cells were collected and seeded into 96-well plates. After adhesion, cells were treated with IFN-γ (0, 10, 100 ng/ml) with different compounds: 2A6Q, CXCL9, CXCL10, CXCL11, ROS scavenger (NAC), necroptosis inhibitor (NEC-1), pyroptosis inhibitor (VX-765), apoptosis inhibitor (QVD-OPH), Ferroptosis inhibitor (Liproxstaitin-1, Ferrostatin-1, DFO). Cell viability was measured using a CellTiter-Glo luminescent cell viability assay kit (Promega) according to the manufacturer's protocol. The […] of the final reaction product was measured using a luminometer (SpectraMax® iD3 Multi-Mode Microplate Reader (Molecular Devices). After calculation, the viability of control cells was 100%, and all others were normalized to control and shown as relative cell viability (%). Treatment dosage N-acetylcysteine (NAC; 0.05 mM, 1 mM), Necrostatin-1 (NEC-1; 20 μM, 2 μM), Belnacasan (VX-765; 50 μg/mL, 5 μg/mL), Quinoline-Val Asp-Difluorophenoxymethylketone (QVD-OPH; 10 μM, 2 μM), Liproxstaitin-1 (10 μM, 5 μM, 1 μM, 0.05 μM), Ferrostatin-1 (5 μM, 1 μM), Deferoxamine (DFO; 10 μM, […], 1 μM, 0.05 μM), 2A6Q (10 μg/mL), CXCL9 (10 ng/mL, 10 pg/mL), CXCL10 (10 ng/ml, 10 pg/mL), CXCL11(10 ng/mL, 10 pg/mL).
# primary melanocytes [2] = test: Cell morphology assay in melanocytes; type: cell-based, human; conditions: primary melanocytes, 7 days of treatment
# [3] = cited from earlier work
compound,measurement,setting,value
CXCL10: IFN-γ downstream cytokine added to melanocytes,effect on cell viability of melanocytes (individual cytokine),primary melanocytes [1]; day 7 of treatment,"not CXCL9, CXCL10, or CXCL11 significantly decreases"
"CC(C)[C@H](NC(=O)c1ccc2ccccc2n1)C(=O)N[C@@H](CC(=O)O)C(=O)COc1c(F)cccc1F [QVDOPH, Quinoline-Val Asp-Difluorophenoxymethylketone]",rescue of IFN-γ induced melanocyte cell death (cell viability),primary melanocytes [1],unable to restore
same,rescue of IFN-γ induced melanocyte cell death (cell viability),primary melanocytes [1]; listed as pan-caspase inhibitor,unable to rescue
"CCO[C@@H]1OC(=O)C[C@@H]1NC(=O)[C@@H]1CCCN1C(=O)[C@@H](NC(=O)c1ccc(N)c(Cl)c1)C(C)(C)C [VX-765, Belnacasan]",rescue of IFN-γ induced melanocyte cell death (cell viability),primary melanocytes [1],unable to restore
Clc1cccc(CN=C2Nc3ccccc3NC23CCNCC3)c1 [Liproxstatin-1],rescue of IFN-γ induced melanocyte cell death (cell viability),primary melanocytes [1],can partially rescue
IFN-α,"morphology change in melanocyte (loss of dendrite, ballooning of cytoplasm)",primary melanocytes [2],not IFN-α was found to contributes to morphology change
"NI-0501: another anti-IFN-γ antibody, described in U.S. Pat. No. 7,700,098 B2",Key Study Findings: mortalities,[3]; at all dose groups,There were mortalities
same,Key Study Findings: GI tract infection caused by Shigella sp. and Campylobacter sp.,"[3]; cynomolgus monkey, in vivo",infection was confirmed
same,Key Study Findings: monkeys early sacrificed because of severe clinical signs,[3]; from 18 monkeys,7 monkeys were early
"CN1C(=O)C(Cc2c[nH]c3ccccc23)NC1=S (centres unmarked) [NEC-1, Necrostatin-1]",rescue of IFN-γ induced melanocyte cell death (cell viability),primary melanocytes [1],unable to restore
"CC(=O)N[C@@H](CS)C(=O)O [NAC, N-acetylcysteine]",rescue of IFN-γ induced melanocyte cell death (cell viability),primary melanocytes [1],did not find a rescue effect; also recorded: unable to restore
